Experimental data taken from patent US7704982B2, “2-methylene-19-nor-1α-hydroxy-17-ene-homopregnacalciferol and its uses” (Wisconsin Alumni Research Foundation, priority 2004, dated 2010).

Legend:
[1] = system: Human promyelocytic leukemia (HL60) cells; assay: HL-60 cell differentiation (nitro blue tetrazolium reduction); type: cell-based; settings: 4 days, FIG. 2
Description: The study drugs were dissolved in ethanol and the concentrations determined using UV spectrophotometry. Serial dilutions were prepared so that a range of drug concentrations could be tested without changing the final concentration of ethanol (≦0.2%) present in the cell cultures.
Human promyelocytic leukemia (HL60) cells were grown in RPMI-1640 medium containing 10% fetal bovine serum. The cells were incubated at 37° C. in the presence of 5% CO2.
HL60 cells were plated at 1.2×10^5 cells/ml. Eighteen hours after plating, cells in duplicate were treated with drug. Four days later, the cells were harvested and a nitro blue tetrazolium reduction assay was performed (Collins et al., 1979; J. Exp. Med. 149:969-974). The percentage of differentiated cells was determined by counting a total of 200 cells and recording the number that contained intracellular black-blue formazan deposits. Verification of differentiation to monocytic cells was determined by measuring phagocytic activity (data not shown).

[2] = system: 24-hydroxylase (24Ohase) gene promoter; assay: In vitro transcription assay (luciferase reporter) in ROS 17/2.8 (bone) cells; type: cell-based; settings: ROS 17/2.8 cells, 24Ohase promoter-luciferase, 16 h; FIG. 3; read-out: EC50, transcriptional activity in bone cells
Description: Transcription activity was measured in ROS 17/2.8 (bone) cells that were stably transfected with a 24-hydroxylase (24Ohase) gene promoter upstream of a luciferase reporter gene (Arbour et al., 1998). Cells were given a range of doses. Sixteen hours after dosing the cells were harvested and luciferase activities were measured using a luminometer.
RLU=relative luciferase units.

[3] = Bone calcium mobilization (serum calcium) in vitamin D-deficient rats; type: in vivo, Sprague-Dawley rats; settings: 0.02% Ca diet
Description: (§1) Male, weanling Sprague-Dawley rats were placed on Diet 11 (0.47% Ca)+AEK for one week followed by Diet 11 (0.02% Ca)+AEK for 3 weeks. The rats were then switched to the same diet containing 0.47% Ca for one week followed by two weeks on the same diet containing 0.02% Ca. Dose administration began during the last week on 0.02% calcium diet. Four consecutive ip doses were given approximately 24 hours apart. Twenty-four hours after the last dose, blood was collected from the severed neck and the concentration of serum calcium determined by atomic absorption spectrometry as a measure of bone calcium mobilization. The first 10 cm of the intestine was also collected for intestinal calcium transport analysis using the everted gut sac method.

[4] = Intestinal calcium transport, everted gut sac method, in vitamin D-deficient rats; type: in vivo, Sprague-Dawley rats; settings: FIG. 6
Description: as §1

[5] = target: T1, full-length recombinant rat vitamin D receptor (Rattus norvegicus, UniProt P13053); assay: Vitamin D receptor competitive binding with [3H]-1,25(OH)2D3; settings: full-length recombinant rat VDR; FIG. 1; read-out: Ki, competition with [3H]-1,25(OH)2D3 for binding to the vitamin D receptor
T1 construct: Full-length recombinant rat receptor was expressed in E. coli; histidine tag (C); made in house; host or cells: E. coli BL21 (DE3) Codon Plus RIL
T1 sequence (P13053 1-423): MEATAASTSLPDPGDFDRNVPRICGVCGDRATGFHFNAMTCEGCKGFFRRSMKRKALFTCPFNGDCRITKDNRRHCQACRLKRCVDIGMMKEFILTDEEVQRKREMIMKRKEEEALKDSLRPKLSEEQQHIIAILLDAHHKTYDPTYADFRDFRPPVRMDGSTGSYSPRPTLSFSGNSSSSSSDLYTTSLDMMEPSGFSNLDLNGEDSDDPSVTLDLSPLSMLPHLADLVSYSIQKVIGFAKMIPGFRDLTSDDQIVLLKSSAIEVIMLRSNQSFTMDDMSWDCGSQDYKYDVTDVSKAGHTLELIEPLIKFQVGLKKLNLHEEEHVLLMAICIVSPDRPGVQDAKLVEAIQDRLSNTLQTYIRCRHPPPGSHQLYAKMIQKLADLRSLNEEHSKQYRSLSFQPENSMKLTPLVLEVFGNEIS
Description: Full-length recombinant rat receptor was expressed in E. coli BL21 (DE3) Codon Plus RIL cells and purified to homogeneity using two different column chromatography systems. The first system was a nickel affinity resin that utilizes the C-terminal histidine tag on this protein. The protein that was eluted from this resin was further purified using ion exchange chromatography (S-Sepharose Fast Flow). Aliquots of the purified protein were quick frozen in liquid nitrogen and stored at −80° C. until use. For use in binding assays, the protein was diluted in TEDK50 (50 mM Tris, 1.5 mM EDTA, pH7.4, 5 mM DTT, 150 mM KCl) with 0.1% Chaps detergent. The receptor protein and ligand concentration were optimized such that no more than 20% of the added radiolabeled ligand was bound to the receptor.
Radiolabeled and unlabeled ligands were added to 100 mcl of the diluted protein at a final ethanol concentration of ≦10%, mixed and incubated overnight on ice to reach binding equilibrium. The following day, 100 mcl of hydroxylapatite slurry (50%) was added to each tube and mixed at 10-minute intervals for 30 minutes. The hydroxylapaptite was collected by centrifugation and then washed three times with Tris-EDTA buffer (50 mM Tris, 1.5 mM EDTA, pH 7.4) containing 0.5% Titron X-100. […] Total binding was determined from the tubes containing only radiolabeled ligand.

Ki [5]	EC50 ([1]; Homo sapiens, HL-60, 96 h)	SMILES	EC50 [1]	EC50 [2]	serum calcium levels (bone calcium mobilization) ([3]; all dosages tested (FIG. 4))	intestinal calcium transport ([4]; 780 pmol/day ip for 4 days)	mobilization of bone calcium (serum calcium) ([3]; 780 pmol/day ip for 4 consecutive days)	mobilization of bone calcium (serum calcium) ([3]; 2340 pmol/day ip for 4 consecutive days)	mobilization of bone calcium (serum calcium) ([3]; 7020 pmol/day ip for 4 consecutive days)	intestinal calcium transport ([4]; 2340 pmol/day ip for 4 days)	intestinal calcium transport ([4]; 7020 pmol/day ip for 4 days)
		C=C1/C(=C\C=C2/CCC[C@]3(C)[C@@H]([C@H](C)CCCC(C)(C)O)CC[C@@H]23)C[C@@H](O)C[C@@H]1O [1,25(OH)2D3, 1α,25-dihydroxyvitamin D3, reference compound]	6.2 nM	0.22 nM	increased serum calcium levels	promotes a significant increase					
0.19 nM	13 nM	C=C1[C@H](O)CC(=C/C=C2\CCC[C@]3(C)C(=C(C)C)CCC23)C[C@H]1O (stereo partly drawn) [VIT-I, 2-methylene-19-nor-1α-hydroxy-17-ene-homopregnacalciferol]		6 nM		does not promote intestinal calcium transport	did not result in mobilization of bone calcium	without any substantial effect	without any substantial effect	does not promote intestinal calcium transport	does not promote intestinal calcium transport
